Measured values from patent US20210309619A1, “ISOXAZOLIN-5-ONE DERIVATIVES AND HERBICIDES CONTAINING THE SAME AS ACTIVE INGREDIENTS” (HOKKO CHEMICAL INDUSTRY CO., LTD., priority 2018, published 2021).

How the values were obtained:
Format in all cases: in vivo
Echinochloa crus-galli [1] = assay: Herbicidal effect test by treatment of rice paddy soil (Test Example 1); settings: 120 g/10 a, treated immediately after seeding, 14 days after treatment
Method: (§1) Wagner pots with an area of 1/10000 ares were filled with a paddy soil, and a compound fertilizer (N:P:K=17:17:17) was mixed after water was added, followed by soil puddling. Then, Echinochloa crus-galli, broad leaf weeds (Lindernia pyxidaria and Monochoria vaginalis) and Scirpus juncoides, 30 seeds each, were sown in a depth of 0 to 1 cm. Water was poured immediately after seeding, and the water depth was kept at about 3 cm. A subsequent management was conducted in a glass greenhouse. Immediately after that, emulsions prepared using the compounds in Table 3 below according to Formulation Example 5 were diluted with water, and a certain amount of the water-diluted agent solutions were dropped. A converted amount of the applied active ingredient corresponded to 120 g per 10 ares.
(§2) This test was conducted in a double system per one agent solution concentration area, and the herbicidal rates (%) were determined by the following equation (Math. 1) 14 days after the treatment with the agents.
(§3) Herbicidal Rate (%)={1−(Average Dry Weight (g) of Plant of Treated Area)/(Average Dry Weight (g) of Plant of Untreated Area)}×100 [Math. 1]

Lindernia pyxidaria [2] = assay: as above; settings: 120 g/10 a, treated immediately after seeding, 14 days after treatment
Method: as §1, §2, §3

Monochoria vaginalis [3] = assay: as above; settings: 120 g/10 a, treated immediately after seeding, 14 days after treatment
Method: as §1, §2, §3

Scirpus juncoides [4] = assay: as above; settings: 120 g/10 a, treated immediately after seeding, 14 days after treatment
Method: as §1, §2, §3

Echinochloa crus-galli [5] = assay: Herbicidal effect test by treatment during growing period in paddy rice cultivation (Test Example 2); settings: 120 g/10 a, treated seven days after seeding, 14 days after treatment
Source text: as §3
as §1, with “after addition of water,” for “after water was added,”, “greenhouse. Emulsions” for “greenhouse. Immediately after that, emulsions”, “Table 4” for “Table 3”, “with water seven days after seeding,” for “with water,”, “ares. The test was conducted in a double system per one agent solution concentration area, and the herbicidal rates (%) were determined by the equation (Math. 1) 14 days after the treatment with the agents. In this regard, the compound numbers in Table 4 are the same as those in Table 1 and Table 2 above.” for “ares.”

Lindernia pyxidaria [6] = assay: as above; settings: 120 g/10 a, treated seven days after seeding, 14 days after treatment
Source text: as §3
as §1, with “after addition of water,” for “after water was added,”, “greenhouse. Emulsions” for “greenhouse. Immediately after that, emulsions”, “Table 4” for “Table 3”, “with water seven days after seeding,” for “with water,”, “ares. The test was conducted in a double system per one agent solution concentration area, and the herbicidal rates (%) were determined by the equation (Math. 1) 14 days after the treatment with the agents. In this regard, the compound numbers in Table 4 are the same as those in Table 1 and Table 2 above.” for “ares.”

Monochoria vaginalis [7] = assay: as above; settings: 120 g/10 a, treated seven days after seeding, 14 days after treatment
Source text: as §3
as §1, with “after addition of water,” for “after water was added,”, “greenhouse. Emulsions” for “greenhouse. Immediately after that, emulsions”, “Table 4” for “Table 3”, “with water seven days after seeding,” for “with water,”, “ares. The test was conducted in a double system per one agent solution concentration area, and the herbicidal rates (%) were determined by the equation (Math. 1) 14 days after the treatment with the agents. In this regard, the compound numbers in Table 4 are the same as those in Table 1 and Table 2 above.” for “ares.”

Scirpus juncoides [8] = assay: as above; settings: 120 g/10 a, treated seven days after seeding, 14 days after treatment
Source text: as §3
as §1, with “after addition of water,” for “after water was added,”, “greenhouse. Emulsions” for “greenhouse. Immediately after that, emulsions”, “Table 4” for “Table 3”, “with water seven days after seeding,” for “with water,”, “ares. The test was conducted in a double system per one agent solution concentration area, and the herbicidal rates (%) were determined by the equation (Math. 1) 14 days after the treatment with the agents. In this regard, the compound numbers in Table 4 are the same as those in Table 1 and Table 2 above.” for “ares.”

Amaranthus viridis [9] = assay: Herbicidal effect test by treatment of dry field farming soil (Test Example 3); settings: 120 g/10 a, sprayed one day after seeding, 14 days after treatment
Source text: (§4) Herbicidal Rate (%)={1−(Average Dry Weight (g) of Plant of Treated Area)/(Average Dry Weight (g) of Plant of Untreated Area)}×100 [Math. 1] Pots with a size of 36 cm^2 were filled with a dry field farming soil (alluvium). The soil of the top layer of 1 cm and seeds of weeds, namely southern crabgrass, Echinochloa crus-galli, Chenopodium album and Amaranthus viridis, 20 seeds each, were evenly mixed, and the top layer was gently pressed. Emulsions prepared using the compounds in Table 5 below according to Formulation Example 5 were diluted with water one day after seeding, and the water-diluted agent solutions were sprayed to the soil surfaces at a ratio of 100 liters per 10 ares. A converted amount of the applied active ingredient corresponded to 120 g per 10 ares. The herbicidal effects were evaluated by the same standard as that in Test Example 1, 14 days after the treatment with the agents. In this regard, the compound numbers in Table 5 are the same as those in Table 1 and Table 2 above.

Chenopodium album [10] = assay: as above; settings: 120 g/10 a, sprayed one day after seeding, 14 days after treatment
Source text: as §4

Echinochloa crus-galli [11] = assay: as above; settings: 120 g/10 a, sprayed one day after seeding, 14 days after treatment
Source text: as §4

southern crabgrass [12] = assay: as above; settings: 120 g/10 a, sprayed one day after seeding, 14 days after treatment
Source text: as §4

Amaranthus viridis [13] = assay: Herbicidal effect test by treatment of stem and leaf in dry field farming (Test Example 4); settings: 120 g/10 a, stem and leaf treatment seven days after seeding, 14 days after treatment
Source text: as §4, with “Table 6” for “Table 5”, “water seven days” for “water one day”

Chenopodium album [14] = assay: as above; settings: 120 g/10 a, stem and leaf treatment seven days after seeding, 14 days after treatment
Source text: as §4, with “Table 6” for “Table 5”, “water seven days” for “water one day”

Echinochloa crus-galli [15] = assay: as above; settings: 120 g/10 a, stem and leaf treatment seven days after seeding, 14 days after treatment
Source text: as §4, with “Table 6” for “Table 5”, “water seven days” for “water one day”

southern crabgrass [16] = assay: as above; settings: 120 g/10 a, stem and leaf treatment seven days after seeding, 14 days after treatment
Source text: as §4, with “Table 6” for “Table 5”, “water seven days” for “water one day”

SMILES | Herbicidal rate, Echinochloa crus-galli (Echinochloa crus-galli [1]) [%] | Herbicidal rate, Lindernia pyxidaria (Lindernia pyxidaria [2]) [%] | Herbicidal rate, Monochoria vaginalis (Monochoria vaginalis [3]) [%] | Herbicidal rate, Scirpus juncoides (Scirpus juncoides [4]) [%] | Herbicidal rate, Echinochloa crus-galli (Echinochloa crus-galli [5]) [%] | Herbicidal rate, Lindernia pyxidaria (Lindernia pyxidaria [6]) [%] | Herbicidal rate, Monochoria vaginalis (Monochoria vaginalis [7]) [%] | Herbicidal rate, Scirpus juncoides (Scirpus juncoides [8]) [%] | Herbicidal rate, Amaranthus viridis (Amaranthus viridis [9]) [%] | Herbicidal rate, Chenopodium album (Chenopodium album [10]) [%] | Herbicidal rate, Echinochloa crus-galli (Echinochloa crus-galli [11]) [%] | Herbicidal rate, southern crabgrass (southern crabgrass [12]) [%] | Herbicidal rate, Amaranthus viridis (Amaranthus viridis [13]) [%] | Herbicidal rate, Chenopodium album (Chenopodium album [14]) [%] | Herbicidal rate, Echinochloa crus-galli (Echinochloa crus-galli [15]) [%] | Herbicidal rate, southern crabgrass (southern crabgrass [16]) [%]
CCOC(=O)N(c1ccccc1Cc1c(C)n(C2CCCCC2OC)oc1=O)S(=O)(=O)C(F)(F)F (stereo not shown) [Compound 190, ethyl N-[2-[[(2-methoxycyclohexyl)-3-methyl-5-oxoisoxazol-4-yl]methyl]phenyl]-N-(trifluoromethylsulfonyl)carbamate] | 100 | 100 | 100 | 100 | 100 | 80 | 90 | 90 | 90 | 60 | 90 | 90 | 90 | 90 | 90 | 90
CCCOC(=O)N(c1ccccc1Cc1c(C)n(C2CCCC2OC)oc1=O)S(=O)(=O)C(F)(F)F (stereo not shown) [Compound 200] | 100 | 100 | 100 | 100 | 100 | 80 | 90 | 90 | 60 | 60 | 90 | 90 | 90 | 90 | 90 | 80
COC1CCCC1n1oc(=O)c(Cc2ccccc2N(C(=O)OC(C)C)S(=O)(=O)C(F)(F)F)c1C (stereo not shown) [Compound 212] | 100 | 100 | 100 | 100 | 100 | 80 | 90 | 90 | 60 | 60 | 90 | 90 | 90 | 90 | 90 | 80
COC1CCCC1n1oc(=O)c(Cc2ccccc2N(C(=O)OCC(C)C)S(=O)(=O)C(F)(F)F)c1C (stereo not shown) [Compound 248] | 100 | 100 | 100 | 100 | 100 | 80 | 90 | 90 | 60 | 60 | 90 | 90 | 90 | 90 | 90 | 80
COC1CCCCC1n1oc(=O)c(Cc2ccccc2N(C(=O)OCC(C)C)S(=O)(=O)C(F)(F)F)c1C (stereo not shown) [Compound 250] | 100 | 100 | 100 | 100 | 100 | 90 | 90 | 90 | 90 | 60 | 90 | 90 | 90 | 90 | 90 | 90
COC1CCCC1n1oc(=O)c(Cc2ccccc2N(C(=O)Oc2ccccc2)S(=O)(=O)C(F)(F)F)c1C (stereo not shown) [Compound 286] | 100 | 100 | 100 | 100 | 100 | 80 | 90 | 90 | 60 | 60 | 90 | 90 | 90 | 90 | 90 | 80
COC1CCCC1n1oc(=O)c(Cc2ccccc2N(S(=O)(=O)C(F)(F)F)S(=O)(=O)C(F)(F)F)c1C (stereo not shown) [Compound 349, 1,1,1-trifluoro-N-[2-[[(2-methoxycyclopentyl)-3-methyl-5-oxoisoxazol-4-yl]methyl]phenyl]-N-(trifluoromethylsulfonyl)methanesulfonamide] | 100 | 100 | 100 | 90 | 100 | 80 | 80 | 90 | 90 | 60 | 90 | 90 | 80 | 80 | 90 | 80
